The target in experiment [1] is T1, Protein kinase C beta type (Homo sapiens, UniProt P05771). In words: Inhibition of [3H]phorbol-12,13-dibutyrate (PDBu) binding to Protein kinase C beta C1a.
Target sequence in this assay (P05771 whole entry): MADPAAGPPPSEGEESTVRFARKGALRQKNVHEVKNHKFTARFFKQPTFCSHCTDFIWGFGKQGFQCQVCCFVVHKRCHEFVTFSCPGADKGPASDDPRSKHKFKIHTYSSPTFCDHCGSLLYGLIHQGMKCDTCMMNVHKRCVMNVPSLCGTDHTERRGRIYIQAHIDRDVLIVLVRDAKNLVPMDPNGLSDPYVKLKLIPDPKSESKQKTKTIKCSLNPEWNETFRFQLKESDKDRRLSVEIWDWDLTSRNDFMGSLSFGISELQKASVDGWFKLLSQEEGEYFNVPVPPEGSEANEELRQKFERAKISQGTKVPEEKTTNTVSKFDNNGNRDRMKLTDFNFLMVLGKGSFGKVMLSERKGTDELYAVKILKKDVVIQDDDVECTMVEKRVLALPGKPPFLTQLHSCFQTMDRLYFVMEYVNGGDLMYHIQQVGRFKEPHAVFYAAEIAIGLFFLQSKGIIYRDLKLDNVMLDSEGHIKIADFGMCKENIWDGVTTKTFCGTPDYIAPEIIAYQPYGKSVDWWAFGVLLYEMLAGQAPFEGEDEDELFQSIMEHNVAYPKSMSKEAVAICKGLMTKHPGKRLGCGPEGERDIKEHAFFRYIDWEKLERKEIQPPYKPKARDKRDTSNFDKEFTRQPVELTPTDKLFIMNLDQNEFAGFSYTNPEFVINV
The target of experiment [2] is T2, Protein kinase C epsilon type (Homo sapiens, UniProt Q02156).
T2 sequence (Q02156 whole entry): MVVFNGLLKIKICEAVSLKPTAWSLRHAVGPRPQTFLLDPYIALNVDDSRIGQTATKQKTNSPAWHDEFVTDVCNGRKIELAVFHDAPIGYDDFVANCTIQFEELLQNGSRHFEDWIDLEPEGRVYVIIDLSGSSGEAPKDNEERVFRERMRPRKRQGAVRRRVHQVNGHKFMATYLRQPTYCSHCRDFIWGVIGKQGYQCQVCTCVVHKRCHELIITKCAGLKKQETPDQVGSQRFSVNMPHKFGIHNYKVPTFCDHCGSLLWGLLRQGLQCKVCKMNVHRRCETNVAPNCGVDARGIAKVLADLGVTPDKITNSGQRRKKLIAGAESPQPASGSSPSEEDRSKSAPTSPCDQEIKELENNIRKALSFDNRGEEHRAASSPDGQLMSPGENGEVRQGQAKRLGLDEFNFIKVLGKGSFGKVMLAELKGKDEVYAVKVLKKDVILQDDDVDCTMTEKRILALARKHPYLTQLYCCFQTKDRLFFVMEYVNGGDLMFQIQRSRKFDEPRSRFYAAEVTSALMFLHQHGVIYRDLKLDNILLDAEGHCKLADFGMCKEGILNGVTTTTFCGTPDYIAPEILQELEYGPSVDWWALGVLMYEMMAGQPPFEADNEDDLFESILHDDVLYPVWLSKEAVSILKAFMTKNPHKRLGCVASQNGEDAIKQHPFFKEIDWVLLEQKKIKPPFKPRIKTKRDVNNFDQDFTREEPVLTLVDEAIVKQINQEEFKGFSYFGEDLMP
In words: Inhibition of [3H]phorbol-12,13-dibutyrate (PDBu) binding to Protein kinase C epsilon C1b domain.

For experiment [3], the system named is HL-60. In words: Tested for superoxide (O2-) generation inducing activity in differentiated HL-60 cells at 10e-6 M. Format: functional, Homo sapiens.
The test system of experiment [4] is Raji (Homo sapiens). In words: Tested for epstein barr virus early antigen (EBV-EA) inducing activity in Raji cells at 10e-4.5 M.
Experiment [5] deals with T1, Protein kinase C beta type. Kind of experiment: Inhibition of [3H]phorbol-12,13-dibutyrate (PDBu) binding to Protein kinase C beta C1b domain.
Target sequence in this assay (P05771 whole entry, looked up): as the sequence (P05771 whole entry) above
Experiment [6] deals with T3, Protein kinase C gamma type (Homo sapiens, UniProt P05129). In words: Inhibition of [3H]phorbol-12,13-dibutyrate (PDBu) binding to Protein kinase C gamma C1a domain.
Experiment [7] deals with T4, Protein kinase C eta type (Homo sapiens, UniProt P24723). In words: Inhibition of [3H]phorbol-12,13-dibutyrate (PDBu) binding to Protein kinase C eta C1b domain.
T4 sequence (P24723 whole entry, the tested form may be a part): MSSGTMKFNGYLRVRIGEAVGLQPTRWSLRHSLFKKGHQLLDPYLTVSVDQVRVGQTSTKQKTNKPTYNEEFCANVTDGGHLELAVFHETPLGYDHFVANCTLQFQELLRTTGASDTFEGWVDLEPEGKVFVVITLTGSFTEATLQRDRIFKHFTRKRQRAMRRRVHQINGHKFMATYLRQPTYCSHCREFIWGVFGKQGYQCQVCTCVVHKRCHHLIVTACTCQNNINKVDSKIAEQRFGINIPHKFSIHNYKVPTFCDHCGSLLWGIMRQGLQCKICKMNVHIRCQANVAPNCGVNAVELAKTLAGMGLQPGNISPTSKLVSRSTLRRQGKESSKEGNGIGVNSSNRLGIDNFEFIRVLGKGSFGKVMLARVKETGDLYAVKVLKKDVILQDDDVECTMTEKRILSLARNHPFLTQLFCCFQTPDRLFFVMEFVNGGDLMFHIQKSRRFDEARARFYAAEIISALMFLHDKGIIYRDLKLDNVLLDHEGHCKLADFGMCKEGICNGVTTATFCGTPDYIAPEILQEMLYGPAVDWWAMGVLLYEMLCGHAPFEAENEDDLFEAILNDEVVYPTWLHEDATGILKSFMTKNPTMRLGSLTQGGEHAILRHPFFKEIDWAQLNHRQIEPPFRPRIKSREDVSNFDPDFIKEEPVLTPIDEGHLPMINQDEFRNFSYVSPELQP
Experiment [8] deals with T5, Protein kinase C delta type (Homo sapiens, UniProt Q05655). In words: Inhibition of [3H]phorbol-12,13-dibutyrate (PDBu) binding to Protein kinase C delta C1a domain.
T5 sequence (Q05655 whole entry, the tested form may be a part): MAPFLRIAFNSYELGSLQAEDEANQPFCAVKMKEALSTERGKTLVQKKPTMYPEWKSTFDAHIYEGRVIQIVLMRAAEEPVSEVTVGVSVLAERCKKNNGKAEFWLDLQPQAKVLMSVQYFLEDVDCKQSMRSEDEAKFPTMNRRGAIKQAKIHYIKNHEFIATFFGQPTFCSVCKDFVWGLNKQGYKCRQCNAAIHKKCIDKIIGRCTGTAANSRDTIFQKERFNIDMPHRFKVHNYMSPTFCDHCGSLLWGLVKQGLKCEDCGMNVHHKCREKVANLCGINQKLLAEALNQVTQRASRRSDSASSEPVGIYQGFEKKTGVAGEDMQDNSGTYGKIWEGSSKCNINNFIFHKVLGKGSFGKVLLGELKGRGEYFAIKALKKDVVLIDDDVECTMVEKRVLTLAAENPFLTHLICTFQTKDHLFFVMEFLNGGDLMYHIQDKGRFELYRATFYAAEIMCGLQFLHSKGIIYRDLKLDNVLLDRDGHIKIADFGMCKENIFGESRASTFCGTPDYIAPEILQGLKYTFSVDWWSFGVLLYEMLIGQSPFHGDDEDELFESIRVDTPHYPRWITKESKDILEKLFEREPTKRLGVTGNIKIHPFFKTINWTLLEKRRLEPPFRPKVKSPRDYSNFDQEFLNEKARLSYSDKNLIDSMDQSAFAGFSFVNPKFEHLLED
In experiment [9] the target is T5, Protein kinase C delta type. Kind of experiment: Inhibition of [3H]phorbol-12,13-dibutyrate (PDBu) binding to Protein kinase C delta C1b domain.
The subject of experiment [10] is Raji (Homo sapiens). In words: Tested for epstein barr virus early antigen (EBV-EA) inducing activity in Raji cells at 10e-6 M.
Experiment [11] deals with HL-60. In words: Tested for superoxide (O2-) generation inducing activity in differentiated HL-60 cells at 10e-7 M. Format: functional, Homo sapiens.
In experiment [12] the target is T2, Protein kinase C epsilon type. In words: Inhibition of [3H]phorbol-12,13-dibutyrate (PDBu) binding to Protein kinase C epsilon C1a domain.
Experiment [13] deals with T3, Protein kinase C gamma type. In words: Inhibition of [3H]phorbol-12,13-dibutyrate (PDBu) binding to Protein kinase C gamma C1b domain.
Experiment [14] deals with T4, Protein kinase C eta type. Kind of experiment: Inhibition of [3H]phorbol-12,13-dibutyrate (PDBu) binding to Protein kinase C eta C1a domain.
The subject of experiment [15] is HL-60. Kind of experiment: Tested for superoxide (O2-) generation inducing activity in differentiated HL-60 cells at 10e-5 M. The format is functional, Homo sapiens.
Experiment [16] addresses T6, Protein kinase C alpha type (Homo sapiens, UniProt P17252). Kind of experiment: Inhibition of [3H]phorbol-12,13-dibutyrate (PDBu) binding to Protein kinase C alpha C1a domain.
In experiment [17] the target is Protein kinase C theta type (Homo sapiens, UniProt Q04759). In words: Inhibition of [3H]phorbol-12,13-dibutyrate (PDBu) binding to Protein kinase C theta C1b domain.
Sequence of Protein kinase C theta type (Q04759 whole entry, the tested form may be a part): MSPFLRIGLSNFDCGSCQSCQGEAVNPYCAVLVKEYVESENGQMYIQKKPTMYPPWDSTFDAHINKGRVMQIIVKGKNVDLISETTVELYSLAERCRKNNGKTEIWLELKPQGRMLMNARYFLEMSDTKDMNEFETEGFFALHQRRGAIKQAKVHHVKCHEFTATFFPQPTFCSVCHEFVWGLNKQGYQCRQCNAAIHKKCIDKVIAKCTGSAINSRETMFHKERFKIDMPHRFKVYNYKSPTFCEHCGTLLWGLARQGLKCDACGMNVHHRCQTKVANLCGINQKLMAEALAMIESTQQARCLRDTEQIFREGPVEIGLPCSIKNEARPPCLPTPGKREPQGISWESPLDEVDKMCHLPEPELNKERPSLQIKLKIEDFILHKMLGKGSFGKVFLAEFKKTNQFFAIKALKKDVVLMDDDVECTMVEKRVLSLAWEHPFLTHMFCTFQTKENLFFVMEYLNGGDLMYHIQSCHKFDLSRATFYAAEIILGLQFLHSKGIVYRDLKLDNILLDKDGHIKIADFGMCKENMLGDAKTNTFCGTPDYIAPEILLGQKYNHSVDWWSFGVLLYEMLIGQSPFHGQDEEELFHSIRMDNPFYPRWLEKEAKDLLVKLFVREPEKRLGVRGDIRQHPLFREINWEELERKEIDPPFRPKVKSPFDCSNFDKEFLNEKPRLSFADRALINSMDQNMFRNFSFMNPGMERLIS
Experiment [18] concerns the target T6, Protein kinase C alpha type. In words: Inhibition of [3H]phorbol-12,13-dibutyrate (PDBu) binding to Protein kinase C alpha C1b domain.
Experiment [19] concerns Raji (Homo sapiens). Kind of experiment: Tested for epstein barr virus early antigen (EBV-EA) inducing activity in Raji cells at 10e-5 M.
Experiment [20] concerns HL-60. In words: Tested for superoxide (O2-) generation inducing activity in differentiated HL-60 cells at 10e-4 M. Format: functional, Homo sapiens.
Experiment [21] deals with HL-60. Kind of experiment: Tested for epstein barr virus early antigen (EBV-EA) inducing activity in […] at 10e-7 M. The format is functional, Homo sapiens.

Bounds are passed on as bounds.

Regarding `CCCCCCCCCCc1ccc2c(c1)C[C@@H](CO)NC(=O)[C@H](C(C)C)N2C`, the Ki was found to be 0.442 µM in experiment [1]; 0.0131 µM in [2]; 0.261 µM in experiment [5]; 1.66 µM in experiment [6]; 0.0064 µM in experiment [7]; 2.77 µM in [8]. The inhibition constant Ki came to 0.0146 µM in experiment [9]; 8.36 µM in experiment [12]; 0.151 µM in experiment [13]; 2.49 µM in [14]; 0.323 µM in experiment [16]; 0.0132 µM in experiment [17]. Further, the Ki in experiment [18] was determined as 4.69 µM. The Activity in the experiment with HL-60 [3] was 0.31 nM min-1 ml-1; in the experiment on Raji (Homo sapiens) [4], 17.6%; in the experiment on Raji (Homo sapiens) [10] it was 6.7%; in the experiment with HL-60 [11] it was 0.33 nM min-1 ml-1; in the experiment with HL-60 [15], 3.04 nM min-1 ml-1; in the experiment with Raji (Homo sapiens) [19] it was 11.3%.
Consider `CCCCCCCCCCc1ccc2c(c1)C[C@@H](CO)OC(=O)[C@H](C(C)C)N2C`, for which the inhibitory constant (Ki) in [1] was above 10 µM; in experiment [2], 0.262 µM; in experiment [5], 22 µM; in experiment [6], 6.32 µM; in [7], 0.12 µM; in experiment [8], 70.6 µM. The Ki in experiment [9] was 1.16 µM; in [12], above 10 µM; in experiment [13] it was 17.6 µM; in experiment [14], above 10 µM; in [16], above 10 µM; in experiment [17] it was 1.1 µM. Also, the Ki in experiment [18] is above 10 µM. The Activity in the experiment on HL-60 [20] turned out to be 0.19 nM min-1 ml-1; in the experiment with HL-60 [3], 0.11 nM min-1 ml-1; in the experiment with Raji (Homo sapiens) [4], 5%; in the experiment on Raji (Homo sapiens) [10], 0.8%; in the experiment with HL-60 [15] it was 0.2 nM min-1 ml-1; in the experiment on Raji (Homo sapiens) [19], 1.9%.
For `CC(C)[C@H]1C(=O)N[C@H](CO)Cc2c[nH]c3cccc(c23)N1C` [INDOLACTUM], the Activity in the experiment with HL-60 [21] came out at 16.8%; in the experiment with HL-60 [3], 3.19 nM min-1 ml-1; in the experiment with Raji (Homo sapiens) [10], 33.5%; in the experiment on HL-60 [11], 0.05 nM min-1 ml-1; with HL-60 [15] it was 3.18 nM min-1 ml-1; with Raji (Homo sapiens) [19], 28.9%.
For `CCCCCCCCCCCCCC(=O)O[C@@H]1[C@@H](C)[C@@]2(O)[C@@H](C=C(CO)C[C@]3(O)C(=O)C(C)=C[C@@H]23)[C@@H]2C(C)(C)[C@]12OC(C)=O` [PHORBOL MYRISTATE ACETATE], the Activity in the experiment on HL-60 [11] was found to be 1.32 nM min-1 ml-1.

Source of the values: ChEMBL document CHEMBL1134226, “The amide hydrogen of (-)-indolactam-V and benzolactam-V8's plays a critical role in protein kinase C binding and tumor-promoting activities” (Bioorg Med Chem Lett, 2001).
